Data set [1] concerns β-adrenoceptors mediating vasodilation. As to the kind of experiment: Test I. β-Adrenoceptor blocking activity in the anaesthetised cat (intravenous), vascular (isoprenaline fall in diastolic blood pressure). The class given is in vivo. As to conditions: for i.v. Dose Vascular (dose required to reduce fall in diastolic blood pressure produced by whole dose of isoprenaline to that produced by half dose): hydrochloride salts, isoprenaline 210 seconds after test compound; for Ratio cardiac dose / vascular dose: i.v. As for the experimental part:
(§1) Test I. β-Adrenoceptor blocking activity in the anaesthetised cat (intravenous administration).
(§2) Cats were anaesthetised with a mixture of pentobarbitone (6-12 mg./kg.) and chloralose suspension (80 mg./kg.) administered intraperitoneally. The heart rate was recorded from the E.C.G. or from the pulse, and blood pressure was recorded from the carotid artery. Whole (0.3-0.6 μg.) and half (0.15-0.3 μg.) doses of isoprenaline were then administered, intravenously via the jugular vein, alternately at 7 minute intervals over a period of several hours. 210 seconds after a half dose of isoprenaline, one of the compounds under test was administered intravenously. 210 seconds later the whole dose of isoprenaline was administered. The doses of the test compound required to reduce (1) the tachycardia and (2) the fall in diastolic blood pressure produced by the whole dose of isoprenaline to that produced by the half dose were determined. The former response gives a measure of the ability of the test compound to block β-adrenoceptors in the heart while the latter response gives a measure of the ability of the test compound to block the β-adrenoceptors mediating vasodilation.
(§3) Those hydrochloride salts of compounds A, G, H and J were dissolved in water and administered in aqueous solution. Compounds B, C, D, E, F and I were each dissolved in dilute aqueous hydrochloric acid solution (0.1 N) and the solution thus obtained was neutralised by treatment with aqueous sodium hydroxide solution (0.1 N), to give a neutral solution of the hydrochloride salt of the test compound suitable for administration.

Data set [2] can be described thus: Acute toxicity, mouse, oral. Conditions: in vivo.
Data set [3] can be described thus: Acute toxicity, mouse, intravenous. Conditions: in vivo, read-out: i.v. LD80.
Data set [4] has as its system β-adrenoceptors in the heart. As to the kind of experiment: Test I. β-Adrenoceptor blocking activity in the anaesthetised cat (intravenous), cardiac (isoprenaline tachycardia). The class given is in vivo. Conditions: hydrochloride salts, isoprenaline 210 seconds after test compound. As for the experimental part: as §1, §2, §3
Data set [5] can be described thus: Toxicity, dog, oral, two weeks. Format: in vivo, dog (beagle). Conditions: beagles, oral daily doses of 10, 50 or 100 mg./kg. during two weeks. As for the experimental part:
Two groups, each of two males and two females, each received a daily dose of 10 or 50 mg./kg. animal body weight and one group, of one male and one female, received a daily dose of 100 mg./kg. animal body weight.

The nature of data set [6]: Toxicity, rat, oral, two weeks. The class given is in vivo. As to conditions: oral daily doses of 12, 24, 48 or 96 mg./kg. during two weeks.
The test system of data set [7] is β-adrenoceptors mediating vasodilation. As to the kind of experiment: Test III. β-Adrenoceptor blocking activity in the anaesthetised dog (oral), vascular. Format: in vivo. As to conditions: hydrochloride salt. The protocol:
as §2
(§4) Test III. β-Adrenoceptor blocking activity in the anaesthetised dog (oral administration)
(§5) Test compound A(hydrochloride salt) was tested orally in anaesthetised dogs by proceeding in a similar fashion to that described above in Test I and Test II. The results are expressed below in Table III.

The test system is the same in data set [8]. Description: Test II. β-Adrenoceptor blocking activity in the anaesthetised rhesus monkey (intravenous), vascular. Conditions: i.v., hydrochloride salt. The class given is in vivo. As for the experimental part:
as §2
(§6) Test II. β-Adrenoceptor blocking activity in the anaesthetised rhesus monkey and in the anaesthetised dog (intravenous administration)
(§7) Test compound A (hydrochloride salt) was tested intravenously in anaesthetised rhesus monkeys and dogs by proceeding in a similar fashion to that described above in Test I.

The test system of data set [9] is β-adrenoceptors in the heart. Description: Test III. β-Adrenoceptor blocking activity in the anaesthetised dog (oral), cardiac. The class given is in vivo. Conditions: hydrochloride salt. The protocol: as §2, §4, §5
Data set [10] deals with β-adrenoceptors in the heart. As to the kind of experiment: Test II. β-Adrenoceptor blocking activity in the anaesthetised dog (intravenous), cardiac. Conditions: i.v., hydrochloride salt. The class given is in vivo. As for the experimental part: as §2, §6, §7
The test system of data set [11] is β-adrenoceptors mediating vasodilation. Description: Test II. β-Adrenoceptor blocking activity in the anaesthetised dog (intravenous), vascular. Format: in vivo. Conditions: i.v., hydrochloride salt. As for the experimental part: as §2, §6, §7
For data set [12], the system named is β-adrenoceptors in the heart. Description: Test II. β-Adrenoceptor blocking activity in the anaesthetised rhesus monkey (intravenous), cardiac. As to conditions: i.v., hydrochloride salt. Format: in vivo. As for the experimental part: as §2, §6, §7

This is an account of results in US4201790A, “Benzophenone derivatives” (May & Baker Limited, priority 1975, dated 1980).

Regarding `Cc1ccc(C(=O)c2c(C)cc(C)cc2OCC(O)CNC(C)C)cc1` (racemic) [B, DL-1-(3,5-dimethyl-2-p-toluoylphenoxy)-2-hydroxy-3-isopropylaminopropane], in data set [1], the “i.v. Dose Vascular (dose required to reduce fall in diastolic blood pressure produced by whole dose of isoprenaline to that produced by half dose)” value was 0.031 mg./kg. animal body weight and the “Ratio cardiac dose / vascular dose” value is on record as 93.5. The LD50 in [2] is ~1000 mg/kg. Also, the LD50 in data set [3] lay in the range of 25 to 31 mg/kg. For the same molecule, the “i.v. Dose Cardiac (dose required to reduce tachycardia produced by whole dose of isoprenaline to that produced by half dose)” value in data set [4] is 2.9 mg./kg. animal body weight.
Take `Cc1cc(C)c(C(=O)c2ccccc2)c(OCC(O)CNC(C)C)c1` (racemic) [Compound A, DL-1-(2-benzoyl-3,5-dimethylphenoxy)-2-hydroxy-3-isopropylaminopropane]: the “i.v. Dose Vascular (dose required to reduce fall in diastolic blood pressure produced by whole dose of isoprenaline to that produced by half dose)” value in data set [1] is on record as 0.023 mg./kg. animal body weight. Besides, the “Ratio cardiac dose / vascular dose” value in [1] is 48. Also, the tolerability result in [5] and in data set [6] was “well tolerated” each time. Besides, the LD50 in [3] came to 40 mg/kg. Moreover, the Oral dose vascular in [7] (1 hour after dose) is given as < 0.1 mg./kg. animal body weight; in data set [7] (2 hours after dose), 0.08 mg./kg. animal body weight; in data set [7] (3 hours after dose), 0.1 mg./kg. animal body weight. The Dose vascular is given as 0.0087 mg./kg. animal body weight in data set [8] (210 second interval after dose), 0.0076 mg./kg. animal body weight in [8] (one hour interval after dose), < 0.02 mg./kg. animal body weight in [11] (210 second interval after dose) and < 0.02 mg./kg. animal body weight in data set [11] (one hour interval after dose). Besides, the “i.v. Dose Cardiac (dose required to reduce tachycardia produced by whole dose of isoprenaline to that produced by half dose)” value in [4] is reported as 1.1 mg./kg. animal body weight. Further, the Oral dose cardiac in data set [9] (1 hour after dose) is 4 mg./kg. animal body weight; in [9] (2 hours after dose), 3.2 mg./kg. animal body weight; in data set [9] (3 hours after dose) it was 6 mg./kg. animal body weight. The Dose cardiac in data set [10] (210 second interval after dose) was 0.1 mg./kg. animal body weight; in data set [10] (one hour interval after dose), 0.13 mg./kg. animal body weight; in data set [12] (210 second interval after dose), 0.1 mg./kg. animal body weight; in data set [12] (one hour interval after dose) it was > 1 mg./kg. animal body weight.
As to `Cc1cc(C)c(C(=O)c2ccccc2)c(OCC(O)CNC(C)C)c1C` (racemic) [Compound C, DL-1-(2-benzoyl-3,5,6-trimethylphenoxy)-2-hydroxy-3-isopropylaminopropane], in data set [1], the “i.v. Dose Vascular (dose required to reduce fall in diastolic blood pressure produced by whole dose of isoprenaline to that produced by half dose)” value was 2.3 mg./kg. animal body weight and the “Ratio cardiac dose / vascular dose” value was 1.9. For the same molecule, the LD50 in data set [3] stood at 23 mg/kg. Also, the “i.v. Dose Cardiac (dose required to reduce tachycardia produced by whole dose of isoprenaline to that produced by half dose)” value in [4] was 4.4 mg./kg. animal body weight.
On to `Cc1ccc(C(=O)c2c(C)cc(C)cc2OCC(O)CNC(C)(C)C)cc1` (racemic) [Compound I, DL-1-t-butylamino-3-(3,5-dimethyl-2-p-toluoylphenoxy)-2-hydroxypropane], for which, in [1], the “i.v. Dose Vascular (dose required to reduce fall in diastolic blood pressure produced by whole dose of isoprenaline to that produced by half dose)” value is listed as 0.027 mg./kg. animal body weight and the “Ratio cardiac dose / vascular dose” value came to 17. Also, in data set [3], the LD50 came out at 24 mg/kg. For the same molecule, the “i.v. Dose Cardiac (dose required to reduce tachycardia produced by whole dose of isoprenaline to that produced by half dose)” value in [4] was 0.46 mg./kg. animal body weight.
Take `Cc1ccc(C(=O)c2c(C)cc(C)cc2OCC(O)CNCCc2ccccc2)cc1` (racemic) [Compound J, DL-1-(3,5-dimethyl-2-p-toluoylphenoxy)-2-hydroxy-3-(2-phenylethylamino)propane]: in data set [1], the “i.v. Dose Vascular (dose required to reduce fall in diastolic blood pressure produced by whole dose of isoprenaline to that produced by half dose)” value is 0.068 mg./kg. animal body weight and the “Ratio cardiac dose / vascular dose” value worked out at 29. Also, the “i.v. Dose Cardiac (dose required to reduce tachycardia produced by whole dose of isoprenaline to that produced by half dose)” value in [4] is recorded as ~2.0 mg./kg. animal body weight.
As to `Cc1cc(C)c(C(=O)c2ccccc2C)c(OCC(O)CNC(C)C)c1` (racemic) [D, DL-1-(3,5-dimethyl-2-o-toluoylphenoxy)-2-hydroxy-3-isopropylaminopropane], in data set [1], the “i.v. Dose Vascular (dose required to reduce fall in diastolic blood pressure produced by whole dose of isoprenaline to that produced by half dose)” value is given as 0.16 mg./kg. animal body weight and the “Ratio cardiac dose / vascular dose” value worked out at 5.0. Further, the LD50 in data set [3] was determined as 34 mg/kg. Further, the “i.v. Dose Cardiac (dose required to reduce tachycardia produced by whole dose of isoprenaline to that produced by half dose)” value in [4] is recorded as 0.8 mg./kg. animal body weight.
For `Cc1cc(C)c(C(=O)c2c(C)cccc2C)c(OCC(O)CNC(C)C)c1` (racemic) [E, DL-1-[2-(2,6-dimethylbenzoyl)-3,5-dimethylphenoxy]-2-hydroxy-3-isopropylaminopropane], in that order: 1.8 mg./kg. animal body weight, 2.1, 42 mg/kg and 3.7 mg./kg. animal body weight.
In the same order, the values of `Cc1ccc(C(=O)c2c(C)cc(C)cc2OCC(O)CNC(C)C)c(C)c1` (racemic) [F, DL-1-[2-(2,4-dimethylbenzoyl)-3,5-dimethylphenoxy]-2-hydroxy-3-isopropylaminopropane] are 0.24 mg./kg. animal body weight, 2.5, 24 mg/kg and 0.59 mg./kg. animal body weight.
In the case of `Cc1ccc(C)c(C(=O)c2ccccc2)c1OCC(O)CNC(C)C` (racemic) [G, DL-1-(2-benzoyl-3,6-dimethylphenoxy)-2-hydroxy-3-isopropylaminopropane], in [1], the “i.v. Dose Vascular (dose required to reduce fall in diastolic blood pressure produced by whole dose of isoprenaline to that produced by half dose)” value was 4.2 mg./kg. animal body weight and the “Ratio cardiac dose / vascular dose” value amounted to 1.7. Also, the “i.v. Dose Cardiac (dose required to reduce tachycardia produced by whole dose of isoprenaline to that produced by half dose)” value in data set [4] is reported as 7.1 mg./kg. animal body weight.
`Cc1cc(C)c(C(=O)c2ccc(Cl)cc2)c(OCC(O)CNC(C)C)c1` (racemic) [H, DL-1-(2-p-chlorobenzoyl-3,5-dimethylphenoxy)-2-hydroxy-3-isopropylaminopropane]: in data set [1], the “i.v. Dose Vascular (dose required to reduce fall in diastolic blood pressure produced by whole dose of isoprenaline to that produced by half dose)” value is listed as 0.037 mg./kg. animal body weight and the “Ratio cardiac dose / vascular dose” value is 19. In addition, the LD50 in data set [3] fell in the range of 32 to 40 mg/kg. In addition, the “i.v. Dose Cardiac (dose required to reduce tachycardia produced by whole dose of isoprenaline to that produced by half dose)” value in [4] was 0.72 mg./kg. animal body weight.
